{
  "source": "patent US7223792B2",
  "about": "“Cytotoxic annonaceous acetogenins from Annona muricata” (Advpharma Inc., priority 2001, dated 2007)",
  "key": {"[1]": {"test_system": "2,2,15", "experiment": "three days cytotoxicity bioassay against 2,2,15", "type": "cell-based, human", "conditions": "for IC50: 72 h, read-out: Cytotoxicity IC50 2,2,15", "excerpt": "Adriamycin was used as a standard."}, "[2]": {"test_system": "Hep G2", "experiment": "three days cytotoxicity bioassay against Hep G2", "conditions": "for IC50: Homo sapiens, HepG2, 72 h, read-out: Cytotoxicity IC50 Hep G2; for Cytotoxicity IC50 Hep G2: human hepatoma cell line Hep G2, three days bioassay"}, "[3]": {"conditions": "human hepatoma cell line 2,2,15, three days bioassay"}},
  "note": "Like-named read-outs stand apart in the source and are kept apart here.",
  "data": [
    {"compound": "CCCCCCCCCCCC[C@@H](O)[C@H]1CC[C@@H]([C@@H](O)CCCCC(=O)CCCCCCCC2=C[C@H](C)OC2=O)O1", "note": "[Corossolone (12), Corossolone, reference compound]", "values": [
      {"measurement": "IC50", "setting": "[1]; Homo sapiens", "result": 0.284, "unit": "µg/mL"},
      {"measurement": "IC50", "setting": "[2]", "result": 0.48, "unit": "µg/mL"}
    ]},
    {"compound": "CCCCCC(O)C(O)CCCCCC[C@H](O)[C@@H]1CC[C@H](CCCCCCCCCC[C@H](O)CC2=C[C@H](C)OC2=O)O1", "note": "(some centres unmarked) [Muricin B (2), Muricin B]", "values": [
      {"measurement": "Cytotoxicity IC50 2,2,15", "setting": "[1]; [3]", "result": 0.00429, "unit": "µg/mL"},
      {"measurement": "Cytotoxicity IC50 Hep G2", "setting": "[2]", "result": 1.78, "unit": "µg/mL"}
    ]},
    {"compound": "CCCCCCCC(O)C(O)CC[C@H](O)[C@@H]1CC[C@@H](CCCCCCCCCC[C@@H](O)CC2=C[C@H](C)OC2=O)O1", "note": "(some centres unmarked) [Muricin D (4), Muricin D]", "values": [
      {"measurement": "Cytotoxicity IC50 2,2,15", "setting": "[1]; [3]", "result": 0.048, "unit": "µg/mL"},
      {"measurement": "Cytotoxicity IC50 Hep G2", "setting": "[2]", "result": 0.00066, "unit": "µg/mL"}
    ]},
    {"compound": "CCCCC(O)C(O)C/C=C\\CC[C@H](O)[C@@H]1CC[C@@H](CCCCCCCCCCCC[C@@H](O)CC2=C[C@H](C)OC2=O)O1", "note": "(some centres unmarked) [Muricin F (6), Muricin F]", "values": [
      {"measurement": "cytotoxicity compared with muricin C against 2,2,15", "setting": "[1]; comparison in words, 2,2,15", "result": "more cytotoxic than muricin C"},
      {"measurement": "Cytotoxicity IC50 2,2,15", "setting": "[1]; [3]", "result": 0.00386, "unit": "µg/mL"},
      {"measurement": "cytotoxicity compared with muricin C against Hep G2", "setting": "[2]; comparison in words, Hep G2", "result": "more cytotoxic than muricin C"},
      {"measurement": "Cytotoxicity IC50 Hep G2", "setting": "[2]", "result": 0.0428, "unit": "µg/mL"}
    ]},
    {"compound": "CCCCCCCCCCCCCC[C@@H](O)[C@H]1CC[C@H]([C@H](O)CC[C@H](O)CCCCCCCC2=C[C@H](C)OC2=O)O1", "note": "[Longifolicin (10), Longifolicin, reference compound]", "values": [
      {"measurement": "IC50", "setting": "[1]; [3]", "result": 0.0049, "unit": "µg/mL"},
      {"measurement": "IC50", "setting": "[2]", "result": 0.000404, "unit": "µg/mL"}
    ]},
    {"compound": "COc1cccc2c1C(=O)c1c(O)c3c(c(O)c1C2=O)C[C@@](O)(C(=O)CO)C[C@@H]3O[C@H]1C[C@H](N)[C@H](O)[C@H](C)O1", "note": "[Adriamycin, reference compound]", "values": [
      {"measurement": "IC50", "setting": "[1]; [3]", "result": 0.45, "unit": "µg/mL"},
      {"measurement": "IC50", "setting": "[2]", "result": 0.241, "unit": "µg/mL"}
    ]},
    {"compound": "CCCCCC(O)C(O)CCCCCC[C@@H](O)[C@H]1CC[C@H](CCCCCCCCCC[C@@H](O)CC2=C[C@H](C)OC2=O)O1", "note": "(some centres unmarked) [Muricin A (1), Muricin A]", "values": [
      {"measurement": "Cytotoxicity IC50 2,2,15", "setting": "[1]; [3]", "result": 0.00513, "unit": "µg/mL"},
      {"measurement": "Cytotoxicity IC50 Hep G2", "setting": "[2]", "result": 5.04, "unit": "µg/mL"},
      {"measurement": "times more potent than muricin B against Hep G2", "setting": "[2]; muricin A (4R-OH) compared with muricin B (4S-OH), Hep G2", "result": 2.5, "unit": "times"}
    ]},
    {"compound": "Corossolin [Corossolin (11), reference compound]", "values": [
      {"measurement": "Cytotoxicity IC50 2,2,15", "setting": "[1]; [3]", "result": 0.234, "unit": "µg/mL"}
    ]},
    {"compound": "CCCCCCCC(O)C(O)CC[C@H](O)[C@@H]1CC[C@H](CCCCCCCCCCCC[C@@H](O)CC2=C[C@H](C)OC2=O)O1", "note": "(some centres unmarked) [Muricin C (3), Muricin C]", "values": [
      {"measurement": "Cytotoxicity IC50 2,2,15", "setting": "[1]; [3]", "result": 0.00387, "unit": "µg/mL"},
      {"measurement": "Cytotoxicity IC50 Hep G2", "setting": "[2]", "result": 0.499, "unit": "µg/mL"}
    ]}
  ]
}
